# In ChEMBL document CHEMBL1141772, “Oxygenated terpenoids from a formosan soft coral Sinularia gibberosa” (2005):
# Active and inactive are the calls of the source. The calls are words filed in the database; no cut-off is given here.
# Columns and labels:
# KB = test: Cytotoxicity against human KB cells by MTT assay; format: functional
# [1] = Cytotoxicity against human HEPA 59T/VGH cells by MTT assay; format: functional; conditions: read-out: ED50 (the source's name)
Compound,Activity (KB),EC50 [1],EC50 (KB; read-out: ED50 (the source's name))
CC(C)[C@]12C=C3[C@](C)(O)CC[C@]3(OO1)[C@@H](C)CC2 (relative stereo) [PEROXYGIBBEROL],inactive,8.2 µg/mL,
CC(=O)CC[C@@H]1C(=O)C=C(C(C)C)CC[C@@H]1C [GIBBERODIONE],,> 30 µg/mL,> 30 µg/mL
C=C1CC/C=C(\C)C[C@H](O)/C(C(C)C)=C\[C@H]2[C@H]1CC[C@]2(C)O [SARCOPHYTOL L],inactive,12.6 µg/mL,
